We go through 15 compounds from patent US10035778B2, “Meta-azacyclic amino benzoic acid derivatives as pan integrin antagonists” (Saint Louis University, priority 2015, dated 2018).

Holding throughout (format): binding
Experiment [1] addresses Recombinant human integrin αvβ3 (Homo sapiens (Human), UniProt P05106+P06756). Nature of the experiment: Solid Phase Receptor Assay (SPRA) for αvβ3 function. As to conditions: vitronectin-coated plate. As to the method: 3. Solid Phase Receptor Assay (SPRA) for αvβ3 Function
Recombinant human vitronectin (R& D Systems, 2308-VN) diluted to 1 μg/mL in TBS+ buffer (25 mM Tris pH 7.4, 137 mM NaCl, 2.7 mM KCl, 1 mM CaCl2, 1 mM MgCl2, 1 mM MnCl2) was added to wells (50 μL/well) of a 96-well half-well transparent microtiter plate (Greiner 675061) and incubated overnight at 4° C. Wells were washed 3 times with 150 μL TBS+ and 150 μL of blocking buffer (TBS+ with 1% bovine serum albumin, Sigma A7906) were added. The plate was incubated for 1 hr at 37° C. and then washed 3× with TBS+ buffer. Recombinant human integrin αvβ3 (R&D Systems, 3050-AV) was diluted to 1 μg/mL in TBS+/0.1% bovine serum albumin. Compounds were diluted 1:100 into the integrin solution and then 50 μL added to empty wells of the washed vitronectin-coated plate according to a standard template with each sample repeated in triplicate. After incubation for two hours at room temperature, the plate was washed 3× with 150 μL of TBS+ buffer. To each well, 50 μL of biotinylated anti-αv antibody (R&D Systems, BAF1219) at 0.5 μg/mL in TBS+/0.1% BSA were added and the plate covered and incubated for 1 hr at room temperature. After washing the plate 3× with 150 μL of TBS+ buffer, 50 μL of streptavidin-conjugated horseradish peroxidase (R&D Systems, DY998) diluted in TBS+ blocking buffer were added to the wells and the plate incubated for 20 min at room temperature. The plate was washed 3× with TBS+ buffer followed by 50 μL of TMB substrate (Sigma, T4444) added to each well and the plate was incubated for 20 min at room temperature. Plates were read by colorimetric detection at 650 nm wavelength using a Tecan Safire II plate reader. Concentration-response curves were constructed by non-linear regression (best fit) analysis, and IC50 values were calculated for each compound.

In experiment [2] the target is Recombinant human integrin α8β1 (Homo sapiens (Human), UniProt P05556+P53708). As to the kind of experiment: Solid Phase Receptor Assay (SPRA) for α8β1 function. Conditions: mouse nephronectin-coated plate. Here is the method:
7. Solid Phase Receptor Assay (SPRA) for α8β1 Function
Recombinant mouse nephronectin protein (R&D Systems, Inc, 4298-NP) diluted to 1 μg/mL in TBS+ buffer (25 mM Tris pH 7.4, 137 mM NaCl, 2.7 mM KCl, 1 mM CaCl2, 1 mM MgCl2, 1 mM MnCl2) was added to wells (50 μl/well) of a 96-well half-well transparent microtiter plate (Greiner 675061), and incubated overnight at 4° C. Wells were washed 3 times with 150 μL TBS+ and 150 μL of blocking buffer (TBS+ with 1% bovine serum albumin, Sigma A7906) were added. The plate was incubated for 1 hr at 37° C. and then washed 3× with TBS+. Recombinant human integrin α8β1 (R&D Systems, pre-launch) was diluted to 0.25 μg/mL in TBS+/0.1% bovine serum albumin. Compounds were diluted 1:100 into the integrin solution and 50 μL added to empty wells of the washed nephronectin-coated plate according to a standard template with each sample repeated in triplicate. After incubation for two hours at room temperature, the plate was washed 3× with 150 μL of TBS+. To each well, 50 μL of biotinylated anti-β antibody (R&D Systems, BAF1778) at 0.5 μg/mL in TBS+/0.1% BSA were added and the plate was covered and incubated for 1 hr at room temperature. After washing the plate 3× with 150 μL of TBS+ buffer, 50 μL of streptavidin-conjugated horseradish peroxidase (R&D Systems, DY998) diluted in TBS+ blocking buffer were added to the wells and the plate incubated for 20 min at room temperature. The plate was washed 3× with TBS+ followed by 50 μL of TMB substrate (Sigma T4444) added to each well and the plate incubated for 20 min at room temperature. Plates were read by colorimetric detection at 650 nm wavelength using a Tecan Safire II plate reader. Concentration-response curves were constructed by non-linear regression (best fit) analysis, and IC50 values were calculated for each compound.

Experiment [3] concerns the target Recombinant human integrin αvβ8 (Homo sapiens (Human), UniProt P06756+P26012). Nature of the experiment: Solid Phase Receptor Assay (SPRA) for αvβ8 function. As to conditions: LAP-coated plate. Here is the method:
6. Solid Phase Receptor Assay (SPRA) for αvβ8 Function
Recombinant human LAP protein (R&D Systems, Inc, 246-LP) diluted to 0.5 μg/mL in TBS+ buffer (25 mM Tris pH 7.4, 137 mM NaCl, 2.7 mM KCl, 1 mM CaCl2, 1 mM MgCl2, 1 mM MnCl2) was added to wells (50 μl/well) of a 96-well half-well transparent microtiter plate (Greiner 675061), and incubated overnight at 4° C. Wells were washed 3 times with 150 μL TBS+ and 150 μL of blocking buffer (TBS+ with 1% bovine serum albumin, Sigma A7906) were added. The plate was incubated for 1 hr at 37° C. and then washed 3× with TBS+. Recombinant human integrin αvβ8 (R&D Systems, 4135-AV) was diluted to 0.1 μg/mL in TBS+/0.1% bovine serum albumin. Compounds were diluted 1:100 into the integrin solution and 50 μL added to empty wells of the washed LAP-coated plate according to a standard template with each sample repeated in triplicate. After incubation for two hours at room temperature, the plate was washed 3× with 150 μL of TBS+. To each well, 50 μL of biotinylated anti-αv antibody (R&D Systems, BAF1219) at 1 μg/mL in TBS+/0.1% BSA were added and the plate was covered and incubated for 1 hr at room temperature. After washing the plate 3× with 150 μL of TBS+ buffer, 50 μL of streptavidin-conjugated horseradish peroxidase (R&D Systems, DY998) diluted in TBS+ blocking buffer were added to the wells and the plate incubated for 20 min at room temperature. The plate was washed 3× with TBS+ followed by 50 μL of TMB substrate (Sigma T4444) added to each well and the plate incubated for 20 min at room temperature. Plates were read by colorimetric detection at 650 nm wavelength using a Tecan Safire II plate reader. Concentration-response curves were constructed by non-linear regression (best fit) analysis, and IC50 values were calculated for each compound.

Sequence of Recombinant human integrin αvβ3 (P06756 31-992): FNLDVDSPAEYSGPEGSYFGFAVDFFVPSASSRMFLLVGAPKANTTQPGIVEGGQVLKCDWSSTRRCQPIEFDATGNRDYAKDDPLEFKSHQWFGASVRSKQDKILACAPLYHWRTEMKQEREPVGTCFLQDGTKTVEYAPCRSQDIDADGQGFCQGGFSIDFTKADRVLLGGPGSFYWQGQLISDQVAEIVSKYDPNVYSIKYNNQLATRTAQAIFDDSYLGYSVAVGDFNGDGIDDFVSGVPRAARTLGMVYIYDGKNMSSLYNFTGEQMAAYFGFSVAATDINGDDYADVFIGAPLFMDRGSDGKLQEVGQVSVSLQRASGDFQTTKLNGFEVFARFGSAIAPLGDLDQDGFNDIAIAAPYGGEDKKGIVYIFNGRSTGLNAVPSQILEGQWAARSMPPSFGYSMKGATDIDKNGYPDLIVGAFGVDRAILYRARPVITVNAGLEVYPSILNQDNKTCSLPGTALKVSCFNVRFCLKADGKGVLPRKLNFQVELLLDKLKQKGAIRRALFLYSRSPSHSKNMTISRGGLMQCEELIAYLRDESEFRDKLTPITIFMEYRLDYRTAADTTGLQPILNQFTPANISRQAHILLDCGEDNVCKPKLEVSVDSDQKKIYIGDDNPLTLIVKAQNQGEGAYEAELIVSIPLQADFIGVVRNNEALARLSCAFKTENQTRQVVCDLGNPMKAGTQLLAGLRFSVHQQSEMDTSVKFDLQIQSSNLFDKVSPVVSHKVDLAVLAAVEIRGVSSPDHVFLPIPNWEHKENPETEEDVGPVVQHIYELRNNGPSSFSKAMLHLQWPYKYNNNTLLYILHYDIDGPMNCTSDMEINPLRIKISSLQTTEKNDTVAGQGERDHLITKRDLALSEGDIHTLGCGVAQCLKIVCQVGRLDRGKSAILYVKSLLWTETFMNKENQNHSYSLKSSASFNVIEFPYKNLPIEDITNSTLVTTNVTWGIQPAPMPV
Sequence of Recombinant human integrin αvβ3 (P05106 27-718): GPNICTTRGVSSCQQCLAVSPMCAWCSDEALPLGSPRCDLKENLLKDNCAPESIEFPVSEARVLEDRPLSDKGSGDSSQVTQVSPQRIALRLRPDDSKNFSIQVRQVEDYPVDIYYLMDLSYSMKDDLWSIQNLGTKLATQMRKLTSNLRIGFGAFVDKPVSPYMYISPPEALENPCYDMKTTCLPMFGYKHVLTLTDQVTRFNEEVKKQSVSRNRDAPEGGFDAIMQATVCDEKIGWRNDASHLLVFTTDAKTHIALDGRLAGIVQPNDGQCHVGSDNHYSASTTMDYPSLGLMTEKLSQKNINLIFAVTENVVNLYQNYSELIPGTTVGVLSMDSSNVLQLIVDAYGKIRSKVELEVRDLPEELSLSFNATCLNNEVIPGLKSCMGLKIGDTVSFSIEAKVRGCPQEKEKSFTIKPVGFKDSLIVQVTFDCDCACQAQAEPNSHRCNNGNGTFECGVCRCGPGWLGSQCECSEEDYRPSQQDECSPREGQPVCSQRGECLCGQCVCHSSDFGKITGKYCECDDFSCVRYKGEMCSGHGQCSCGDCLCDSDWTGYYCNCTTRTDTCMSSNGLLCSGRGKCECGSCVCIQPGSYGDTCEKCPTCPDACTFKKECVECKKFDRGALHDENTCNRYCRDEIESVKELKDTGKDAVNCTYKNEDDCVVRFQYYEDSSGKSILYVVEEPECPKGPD
Sequence of Recombinant human integrin αvβ8 (P06756 31-992): as the sequence (P06756 31-992) above
Sequence of Recombinant human integrin αvβ8 (P26012 43-684): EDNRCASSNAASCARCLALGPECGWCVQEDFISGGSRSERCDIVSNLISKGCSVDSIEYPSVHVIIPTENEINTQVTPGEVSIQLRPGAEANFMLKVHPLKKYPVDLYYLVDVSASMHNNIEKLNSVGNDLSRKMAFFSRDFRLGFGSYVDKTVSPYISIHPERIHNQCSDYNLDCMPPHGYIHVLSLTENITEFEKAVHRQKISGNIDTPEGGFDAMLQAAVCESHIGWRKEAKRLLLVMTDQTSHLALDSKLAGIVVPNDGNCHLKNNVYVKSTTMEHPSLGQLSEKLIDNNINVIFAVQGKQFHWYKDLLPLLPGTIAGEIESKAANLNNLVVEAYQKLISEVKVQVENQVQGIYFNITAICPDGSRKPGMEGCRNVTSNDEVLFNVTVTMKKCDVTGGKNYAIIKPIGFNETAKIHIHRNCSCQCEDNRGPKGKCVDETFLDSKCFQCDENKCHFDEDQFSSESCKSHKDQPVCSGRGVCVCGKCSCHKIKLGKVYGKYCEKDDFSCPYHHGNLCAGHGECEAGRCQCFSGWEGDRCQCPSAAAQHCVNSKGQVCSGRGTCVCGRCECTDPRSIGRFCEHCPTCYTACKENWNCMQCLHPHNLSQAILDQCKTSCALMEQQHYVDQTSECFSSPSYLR
Sequence of Recombinant human integrin α8β1 (P53708 39-1012): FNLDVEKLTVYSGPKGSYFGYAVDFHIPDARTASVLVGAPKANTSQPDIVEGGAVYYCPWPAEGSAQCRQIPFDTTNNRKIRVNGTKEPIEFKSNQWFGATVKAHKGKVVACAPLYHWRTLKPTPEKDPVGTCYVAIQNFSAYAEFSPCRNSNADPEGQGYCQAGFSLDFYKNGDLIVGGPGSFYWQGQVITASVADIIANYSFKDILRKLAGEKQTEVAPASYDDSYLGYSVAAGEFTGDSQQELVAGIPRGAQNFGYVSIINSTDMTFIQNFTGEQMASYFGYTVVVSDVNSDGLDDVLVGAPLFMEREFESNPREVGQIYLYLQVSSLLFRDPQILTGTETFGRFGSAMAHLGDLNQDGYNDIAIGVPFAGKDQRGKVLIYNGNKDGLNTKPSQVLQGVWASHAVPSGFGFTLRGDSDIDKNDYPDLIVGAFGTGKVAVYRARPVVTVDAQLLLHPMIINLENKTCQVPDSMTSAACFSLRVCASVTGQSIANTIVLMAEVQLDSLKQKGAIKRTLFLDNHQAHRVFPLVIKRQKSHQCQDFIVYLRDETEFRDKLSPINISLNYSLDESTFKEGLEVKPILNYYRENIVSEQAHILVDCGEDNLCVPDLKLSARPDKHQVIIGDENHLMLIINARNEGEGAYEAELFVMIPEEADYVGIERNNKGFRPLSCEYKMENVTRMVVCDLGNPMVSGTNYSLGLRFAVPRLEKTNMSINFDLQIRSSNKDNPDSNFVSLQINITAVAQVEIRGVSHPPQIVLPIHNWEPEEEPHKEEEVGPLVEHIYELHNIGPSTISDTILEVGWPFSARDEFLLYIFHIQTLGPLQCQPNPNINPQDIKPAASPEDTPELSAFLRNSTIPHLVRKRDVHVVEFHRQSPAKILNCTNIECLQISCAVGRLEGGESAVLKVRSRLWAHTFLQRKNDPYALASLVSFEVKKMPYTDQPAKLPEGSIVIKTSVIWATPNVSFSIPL
Sequence of Recombinant human integrin α8β1 (P05556 21-728): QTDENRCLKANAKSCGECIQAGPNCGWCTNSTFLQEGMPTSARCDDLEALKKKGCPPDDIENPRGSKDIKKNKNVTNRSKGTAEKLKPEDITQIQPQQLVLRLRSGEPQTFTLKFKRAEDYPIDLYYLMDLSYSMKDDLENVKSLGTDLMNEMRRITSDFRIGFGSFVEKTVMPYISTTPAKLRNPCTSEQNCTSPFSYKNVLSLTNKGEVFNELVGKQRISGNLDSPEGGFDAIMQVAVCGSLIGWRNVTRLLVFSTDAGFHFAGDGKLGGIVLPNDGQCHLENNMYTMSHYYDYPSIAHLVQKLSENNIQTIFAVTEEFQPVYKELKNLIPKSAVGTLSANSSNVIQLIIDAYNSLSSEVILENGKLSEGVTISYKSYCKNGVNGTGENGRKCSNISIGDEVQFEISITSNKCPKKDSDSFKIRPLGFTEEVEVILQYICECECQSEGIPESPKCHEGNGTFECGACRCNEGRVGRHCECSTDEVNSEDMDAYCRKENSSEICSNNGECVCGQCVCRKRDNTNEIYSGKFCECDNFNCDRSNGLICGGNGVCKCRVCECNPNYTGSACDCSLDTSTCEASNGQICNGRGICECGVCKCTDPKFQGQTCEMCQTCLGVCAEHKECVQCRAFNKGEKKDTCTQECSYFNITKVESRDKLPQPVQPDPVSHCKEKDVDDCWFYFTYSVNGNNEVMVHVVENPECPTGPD

On to `O=C(O)C[C@H](NC(=O)CNC(=O)c1cncc(NC2=NCC(O)CN2)c1)c1cc(Br)cc(Br)c1` (stereo partly drawn) [Example 14, (3S)-3-(3,5-dibromophenyl)-3-[[2-[[5-[(5-hydroxy-1,4,5,6-tetrahydropyrimidin-2-yl)amino]pyridine-3-carbonyl]amino]acetyl]amino]propanoic acid], for which the results for the IC50 in experiment [1], in experiment [2] and in experiment [3] were 0.3 nM, 0.4 nM and 0.2 nM, respectively.
On the same counts, the results for `O=C(O)C[C@H](NC(=O)CNC(=O)c1cc(O)cc(NC2=NCC(O)CN2)c1)c1cc(Cl)cc(Cl)c1` (stereo partly drawn) [Example 15, (3S)-3-[3,5-dichloro-phenyl)-3-(2-(3-hydroxy-5-((5-hydroxy-1,4,5,6-tetrahydropyrimidin-2-yl)amino)benzamido)acetamido)propanoic acid] are 4 nM, 1.2 nM and 1.1 ± 0.3 nM.
For `O=C(O)C[C@H](NC(=O)CNC(=O)c1cc(O)cc(NC2=NCC(O)CN2)c1)c1cc(Cl)cc(OC(F)(F)F)c1` (stereo partly drawn) [Example 16, (3S)-3-[3-chloro-5-(trifluoromethoxy)phenyl)-3-(2-(3-hydroxy-5-((5-hydroxy-1,4,5,6-tetrahydropyrimidin-2-yl)amino)benzamido)acetamido)propanoic acid], the concentration for half-maximal inhibition (IC50) in experiment [1] was 3 ± 0.3 nM; in experiment [2], 0.5 nM; in experiment [3], 0.3 ± 0.1 nM.
On to `O=C(O)C[C@H](NC(=O)CNC(=O)c1cc(O)cc(NC2=NCC(O)CN2)c1)c1cc(Br)cc(OC(F)(F)F)c1` (stereo partly drawn) [Example 17, (3S)-3-(3-bromo-5-(trifluoromethoxy)phenyl)-3-(2-(3-hydroxy-5-((5-hydroxy-1,4,5,6-tetrahydropyrimidin-2-yl)amino)benzamido)acetamido)propanoic acid], for which the IC50 turned out to be 2.8 ± 1.1 nM in experiment [1], 0.7 nM in experiment [2] and 0.3 ± 0.1 nM in experiment [3].
In the same order, the values of `O=C(O)C[C@H](NC(=O)CNC(=O)c1cc(O)cc(NC2=NCC(O)CN2)c1)c1cc(Cl)cc(Br)c1O` (stereo partly drawn) [Example C1, reference compound] are 5 ± 2 nM, 8 ± 2 nM and 3 ± 2 nM.
In the same order, the values of `O=C(O)C[C@H](NC(=O)CNC(=O)c1cc(O)cc(NC2=NCC(O)CN2)c1)c1ccccc1` (stereo partly drawn) [Example C2, reference compound] are 3 nM, 3 nM and 5 nM.
Take `O=C(O)CC(NC(=O)CNC(=O)c1cc(O)cc(NC2=NCC(O)CN2)c1)c1cc(Cl)cc(Cl)c1O` (stereo not drawn) [Example C3, reference compound]: the IC50 turned out to be 2 nM in experiment [1], 14 nM in experiment [2] and 2 nM in experiment [3].
Consider `Cc1cc(C)cc(C(CC(=O)O)NC(=O)CNC(=O)c2cccc(NC(=N)N)c2)c1` (stereo not drawn) [Example C4, reference compound], for which the values for the IC50 in experiment [1], in experiment [2] and in experiment [3] were 4 nM, 63 nM and 6 nM, respectively.
On to `N=C(N)Nc1cccc(C(=O)NCC(=O)NC(CC(=O)O)c2ccccc2)c1` (stereo not drawn) [Example C5, reference compound], for which the 50% inhibitory concentration (IC50) turned out to be 4 nM in experiment [1], 383 nM in experiment [2] and 66 nM in experiment [3].
Consider `Cc1ccc(O)c(C(CC(=O)O)NC(=O)CNC(=O)c2cc(O)cc(NC3=NCC(O)CN3)c2)c1` (stereo not drawn) [Example C6, reference compound], for which the IC50 in experiment [1] was determined as 6 nM; in experiment [2], 17 nM; in experiment [3], 9 ± 6 nM.
On the same counts, the results for `O=C(O)CC(NC(=O)CNC(=O)c1cc(O)cc(NC2=NCC(O)CN2)c1)c1cc(Br)cc(Br)c1O` (stereo not drawn) [Example C7, reference compound] are 11 nM, 26 nM and 7 nM.
On to `Cc1ccc(O)c(C(CC(=O)O)NC(=O)CNC(=O)c2cccc(NC(=N)N)c2)c1` (stereo not drawn) [Example C8, reference compound], for which the values for the IC50 in experiment [1], in experiment [2] and in experiment [3] were 5 nM, 594 nM and 18 nM, respectively.
In the same order, the values of `N=C(N)Nc1cccc(C(=O)NCC(=O)NC(CC(=O)O)c2cc(F)cc(C(F)(F)F)c2)c1` (stereo not drawn) [Example C9, reference compound] are 4 ± 1 nM, 40 nM and 6 ± 3 nM.
Consider `Cc1cc(Cl)cc([C@@H](CC(=O)O)NC(=O)CNC(=O)c2cc(O)cc(NC3=NCC(O)CN3)c2)c1O` (stereo partly drawn) [Example C10, reference compound], for which the values for the concentration for half-maximal inhibition (IC50) in experiment [1], in experiment [2] and in experiment [3] were 6 nM, 10 nM and 5 nM, respectively.
On the same counts, the results for `Cc1cc(Cl)cc([C@@H](CC(=O)O)NC(=O)CNC(=O)c2cccc(NC3=NCCN3)c2)c1O` [Example C11, reference compound] are 9 nM, 17 nM and 11 nM.

What is called IC50 is the point on the concentration scale where inhibition reaches its midpoint.
